In ChEMBL document CHEMBL1201862, “PubChem BioAssay data set” (2004):
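Exposure lasted 48 hours, with cells grown in 96-well plates and compounds tested at five concentrations. GI50 is the concentration that inhibits growth by half.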 Calls of active or inactive are those of the source. Rule as the data show it: active = GI50 up to about 1.1 µM and inactive = higher.

Legend:
Assay in all cases: inhibition of tumour cell growth, NCI panel, 48 h
786-0 = test system: 786-0
CCRF-CEM = test system: CCRF-CEM
SK-MEL-28 = test system: SK-MEL-28
HOP-62 = test system: HOP-62
SF-268 = test system: SF-268
SR = test system: SR
SF-539 = test system: SF-539
ACHN = test system: ACHN
SK-MEL-2 = test system: SK-MEL-2
TK-10 = test system: TK-10
HL-60 = test system: HL-60
K562 = test system: K562
KM12 = test system: KM12
T47D = test system: T47D
Malme-3M = test system: Malme-3M
SK-MEL-5 = test system: SK-MEL-5
HOP-92 = test system: HOP-92
OVCAR-3 = test system: OVCAR-3
OVCAR-4 = test system: OVCAR-4
NCI-H460 = test system: NCI-H460
SF-295 = test system: SF-295
IGROV-1 = test system: IGROV-1
A498 = test system: A498
COLO 205 = test system: COLO 205
SNB-19 = test system: SNB-19
MDA-MB-231 = test system: MDA-MB-231
M14 = test system: M14
SNB-75 = test system: SNB-75
NCI/ADR-RES = test system: NCI/ADR-RES
UO-31 = test system: UO-31
RPMI-8226 = test system: RPMI-8226
CAKI-1 = test system: CAKI-1
Hs-578T = test system: Hs-578T
MDA-MB-435 = test system: MDA-MB-435
PC-3 = test system: PC-3
MDA-N = test system: MDA-N
DU-145 = test system: DU-145
LOX IMVI = test system: LOX IMVI
NCI-H23 = test system: NCI-H23
A549 = test system: A549
NCI-H522 = test system: NCI-H522
MOLT-4 = test system: MOLT-4
NCI-H226 = test system: NCI-H226
OVCAR-8 = test system: OVCAR-8
UACC-62 = test system: UACC-62
OVCAR-5 = test system: OVCAR-5
MCF7 = test system: MCF7
U-251 = test system: U-251
HCC 2998 = test system: HCC 2998
SW-620 = test system: SW-620
HCT-15 = test system: HCT-15
BT-549 = test system: BT-549
HCT-116 = test system: HCT-116
SN12C = test system: SN12C
HT-29 = test system: HT-29
EKVX = test system: EKVX
SK-OV-3 = test system: SK-OV-3
UACC-257 = test system: UACC-257
RXF 393 = test system: RXF 393

Compound: Cc1cccc2nc3cccc(C(=O)NCCC[N+](C)(CCCNC(=O)c4cccc5nc6cccc(C)c6nc45)Cc4c([N+](=O)[O-])ncn4C)c3nc12
- GI50 (786-0): 4.07 µM (inactive)
- GI50 (CCRF-CEM): 47 µM (inactive)
- GI50 (SK-MEL-28): 1.07 µM (active)
- GI50 (HOP-62): 0.993 µM (active)
- GI50 (SF-268): 2.43 µM (inactive)
- GI50 (SR): 12.6 µM (inactive)
- GI50 (SF-539): 0.41 µM (active)
- GI50 (ACHN): 0.136 µM (active)
- GI50 (SK-MEL-2): 6.95 µM (inactive)
- GI50 (TK-10): 43.9 µM (inactive)
- GI50 (HL-60): 0.199 µM (active)
- GI50 (K562): 25.4 µM (inactive)
- GI50 (KM12): 0.0912 µM (active)
- GI50 (T47D): 21.9 µM (inactive)
- GI50 (Malme-3M): 3.05 µM (inactive)
- GI50 (SK-MEL-5): 1.95 µM (inactive)
- GI50 (HOP-92): 23.9 µM (inactive)
- GI50 (OVCAR-3): 22 µM (inactive)
- GI50 (OVCAR-4): 29 µM (inactive)
- GI50 (NCI-H460): 0.0632 µM (active)
- GI50 (SF-295): 1.35 µM (inactive)
- GI50 (IGROV-1): 11.1 µM (inactive)
- GI50 (A498): 0.979 µM (active)
- GI50 (COLO 205): 0.705 µM (active)
- GI50 (SNB-19): > 1100 µM (inactive)
- GI50 (MDA-MB-231): 38.3 µM (inactive)
- GI50 (M14): 9.68 µM (inactive)
- GI50 (SNB-75): 233 µM (inactive)
- GI50 (NCI/ADR-RES): 38.6 µM (inactive)
- GI50 (UO-31): 0.726 µM (active)
- GI50 (RPMI-8226): 0.0436 µM (active)
- GI50 (CAKI-1): 0.659 µM (active)
- GI50 (Hs-578T): > 1100 µM (inactive)
- GI50 (MDA-MB-435): 5.13 µM (inactive)
- GI50 (PC-3): 1.46 µM (inactive)
- GI50 (MDA-N): 0.293 µM (active)
- GI50 (DU-145): 0.881 µM (active)
- GI50 (LOX IMVI): 0.0908 µM (active)
- GI50 (NCI-H23): 1.53 µM (inactive)
- GI50 (A549): 0.189 µM (active)
- GI50 (NCI-H522): 2.1 µM (inactive)
- GI50 (MOLT-4): 0.0396 µM (active)
- GI50 (NCI-H226): 0.787 µM (active)
- GI50 (OVCAR-8): 0.0859 µM (active)
- GI50 (UACC-62): 0.853 µM (active)
- GI50 (OVCAR-5): 1.91 µM (inactive)
- GI50 (MCF7): 0.436 µM (active)
- GI50 (U-251): 0.377 µM (active)
- GI50 (HCC 2998): 1.67 µM (inactive)
- GI50 (SW-620): 0.143 µM (active)
- GI50 (HCT-15): 0.82 µM
- GI50 (BT-549): 41.7 µM (inactive)
- GI50 (HCT-116): 1.4 µM (inactive)
- GI50 (SN12C): 0.378 µM (active)
- GI50 (HT-29): 0.187 µM (active)
- GI50 (EKVX): 1.79 µM (inactive)
- GI50 (SK-OV-3): 44.8 µM (inactive)
- GI50 (UACC-257): 5.22 µM (inactive)
- GI50 (RXF 393): 4.01 µM (inactive)

Compound: COP(=O)(OC)/C(=C/c1cn(C(c2ccccc2)(c2ccccc2)c2ccccc2)cn1)NC=O
- GI50 (786-0): 29.4 µM (inactive)
- GI50 (CCRF-CEM): 24.8 µM (inactive)
- GI50 (SK-MEL-28): 33.4 µM (inactive)
- GI50 (HOP-62): 17.7 µM (inactive)
- GI50 (SF-268): 14.5 µM (inactive)
- GI50 (SR): > 100 µM (inactive)
- GI50 (SF-539): 14.4 µM (inactive)
- GI50 (ACHN): 12.1 µM (inactive)
- GI50 (SK-MEL-2): 16.9 µM (inactive)
- GI50 (TK-10): 22.5 µM (inactive)
- GI50 (HL-60): > 100 µM (inactive)
- GI50 (K562): 84.9 µM (inactive)
- GI50 (KM12): 32.9 µM (inactive)
- GI50 (T47D): 26.4 µM (inactive)
- GI50 (Malme-3M): 18.6 µM (inactive)
- GI50 (SK-MEL-5): 13.7 µM (inactive)
- GI50 (HOP-92): 18 µM (inactive)
- GI50 (OVCAR-3): 14.9 µM (inactive)
- GI50 (OVCAR-4): 18.2 µM (inactive)
- GI50 (NCI-H460): 16.4 µM (inactive)
- GI50 (SF-295): 13.8 µM (inactive)
- GI50 (IGROV-1): 20.5 µM (inactive)
- GI50 (A498): 16.6 µM (inactive)
- GI50 (COLO 205): 15.4 µM (inactive)
- GI50 (SNB-19): 35 µM (inactive)
- GI50 (MDA-MB-231): 16.2 µM (inactive)
- GI50 (M14): 15.1 µM (inactive)
- GI50 (SNB-75): 5.92 µM (inactive)
- GI50 (NCI/ADR-RES): 17.3 µM (inactive)
- GI50 (UO-31): 12.9 µM (inactive)
- GI50 (RPMI-8226): 32 µM (inactive)
- GI50 (CAKI-1): 20.4 µM (inactive)
- GI50 (Hs-578T): 16 µM (inactive)
- GI50 (MDA-MB-435): 18.1 µM (inactive)
- GI50 (PC-3): 17 µM (inactive)
- GI50 (MDA-N): 19.2 µM (inactive)
- GI50 (DU-145): 21.6 µM (inactive)
- GI50 (LOX IMVI): 15.9 µM (inactive)
- GI50 (NCI-H23): 19.5 µM (inactive)
- GI50 (A549): 23.4 µM (inactive)
- GI50 (NCI-H522): 15.5 µM (inactive)
- GI50 (MOLT-4): > 100 µM (inactive)
- GI50 (NCI-H226): 29.5 µM (inactive)
- GI50 (OVCAR-8): 21.7 µM (inactive)
- GI50 (UACC-62): 18.7 µM (inactive)
- GI50 (OVCAR-5): 20.6 µM (inactive)
- GI50 (MCF7): 16 µM (inactive)
- GI50 (U-251): 16.4 µM (inactive)
- GI50 (HCC 2998): 16.7 µM (inactive)
- GI50 (SW-620): 26 µM (inactive)
- GI50 (HCT-15): 25.6 µM
- GI50 (BT-549): 16 µM (inactive)
- GI50 (HCT-116): 13.8 µM (inactive)
- GI50 (SN12C): 19.2 µM (inactive)
- GI50 (HT-29): 16.4 µM (inactive)
- GI50 (EKVX): 22 µM (inactive)
- GI50 (SK-OV-3): 34 µM (inactive)
- GI50 (RXF 393): 16.3 µM (inactive)
